± gives the expanded uncertainty stated by the source.
Key:
[1] = molar enthalpy of vaporization or sublimation; conditions: 381.12 K; Liquid; Static calorimetry
[2] = Crystal; DTA
[3] = molar heat capacity at constant pressure; conditions: 101.33 kPa, Small sample (50 mg) DSC
[4] = Molar enthalpy of transition or fusion; conditions: Crystal; DSC

CCCCCCC(=O)c1ccc(O)cc1 [1-(4-hydroxyphenyl)-1-heptanone]
Conditions	Molar enthalpy of transition or fusion [kcal/mol]	Normal melting temperature [°C]	molar enthalpy [kcal/mol]
[1]	–	–	24.2 ± 0.478
[2]	–	92 ± 0.4	–
[4]	7.5 ± 0.165	–	–

[3]
Conditions	molar heat capacity at constant pressure [J/K/mol]
288.67 K, Crystal	291 ± 15
289.17 K, Crystal	292.2 ± 21
289.67 K, Crystal	289.9 ± 17
290.17 K, Crystal	290.9 ± 20
290.68 K, Crystal	292.7 ± 18
291.18 K, Crystal	295 ± 17
291.68 K, Crystal	296.8 ± 18
292.18 K, Crystal	295.6 ± 17
292.69 K, Crystal	295.3 ± 16
293.19 K, Crystal	296.8 ± 15
293.69 K, Crystal	295 ± 11
294.19 K, Crystal	297.4 ± 12
294.69 K, Crystal	297.4 ± 17
295.19 K, Crystal	296.8 ± 19
295.69 K, Crystal	301 ± 12
296.19 K, Crystal	302.3 ± 19
296.7 K, Crystal	300.1 ± 12
297.2 K, Crystal	300.6 ± 11
297.7 K, Crystal	300.7 ± 13
298.2 K, Crystal	300.2 ± 10
298.7 K, Crystal	303 ± 13
299.2 K, Crystal	302.5 ± 16
299.7 K, Crystal	304.8 ± 15
300.2 K, Crystal	307.5 ± 10
300.7 K, Crystal	306.2 ± 10
301.2 K, Crystal	305.9 ± 14
301.7 K, Crystal	306.8 ± 9.1
302.2 K, Crystal	306.5 ± 15
302.7 K, Crystal	307.3 ± 7.7
303.2 K, Crystal	308.7 ± 12
303.7 K, Crystal	307.9 ± 13
304.2 K, Crystal	309.2 ± 14
304.7 K, Crystal	311.7 ± 9.4
305.2 K, Crystal	310 ± 6.3
305.7 K, Crystal	309.6 ± 5.1
306.2 K, Crystal	311.9 ± 16
306.7 K, Crystal	312.9 ± 7.5
307.2 K, Crystal	311.4 ± 13
307.7 K, Crystal	311.2 ± 8.8
308.2 K, Crystal	310.6 ± 8
308.7 K, Crystal	313.4 ± 8.3
309.2 K, Crystal	314 ± 4.9
309.7 K, Crystal	314.4 ± 10
310.2 K, Crystal	315.8 ± 6.8
310.7 K, Crystal	314.9 ± 8
311.2 K, Crystal	316.7 ± 8.3
311.7 K, Crystal	318 ± 6.1
312.2 K, Crystal	317.3 ± 8.9
312.7 K, Crystal	318.1 ± 7.5
313.2 K, Crystal	319.2 ± 6.1
313.7 K, Crystal	320.9 ± 8.3
314.2 K, Crystal	320.5 ± 5.5
314.7 K, Crystal	319.8 ± 5
315.2 K, Crystal	319.7 ± 6.6
315.7 K, Crystal	323.3 ± 6.4
316.2 K, Crystal	322.8 ± 6
316.7 K, Crystal	323.2 ± 8.1
317.2 K, Crystal	324 ± 8.1
317.7 K, Crystal	323.8 ± 7.3
318.2 K, Crystal	325.7 ± 7.4
318.7 K, Crystal	324.1 ± 7.6
319.2 K, Crystal	327.1 ± 9.2
319.7 K, Crystal	327.1 ± 12
320.2 K, Crystal	324.7 ± 11
320.7 K, Crystal	327.1 ± 6.4
321.2 K, Crystal	328.9 ± 6.9
321.7 K, Crystal	328.9 ± 6.4
322.2 K, Crystal	330.3 ± 9.5
322.7 K, Crystal	329.6 ± 12
323.2 K, Crystal	331.2 ± 10
323.7 K, Crystal	332 ± 8.4
324.2 K, Crystal	330.5 ± 6
324.7 K, Crystal	331.9 ± 6.1
325.2 K, Crystal	333.5 ± 7.4
325.7 K, Crystal	333.6 ± 7.2
326.2 K, Crystal	334.4 ± 11
326.7 K, Crystal	335 ± 11
327.2 K, Crystal	335.2 ± 6.1
327.7 K, Crystal	334.1 ± 10
328.2 K, Crystal	335 ± 8.7
328.7 K, Crystal	337.4 ± 10
329.2 K, Crystal	336.3 ± 7.4
329.7 K, Crystal	338.1 ± 6.8
330.2 K, Crystal	338.7 ± 10
330.7 K, Crystal	337.8 ± 8
331.2 K, Crystal	338.5 ± 7.7
331.7 K, Crystal	339.5 ± 8.5
332.2 K, Crystal	340.3 ± 10
332.7 K, Crystal	342.3 ± 9.3
333.2 K, Crystal	341.3 ± 12
333.7 K, Crystal	342.1 ± 6.6
334.2 K, Crystal	343.3 ± 12
334.7 K, Crystal	343.6 ± 12
335.2 K, Crystal	343.9 ± 12
335.7 K, Crystal	346.5 ± 9.1
336.2 K, Crystal	344.9 ± 12
336.7 K, Crystal	346.6 ± 10
337.2 K, Crystal	346.4 ± 10
337.7 K, Crystal	346.9 ± 13
338.2 K, Crystal	349.4 ± 8.6
338.7 K, Crystal	347.8 ± 9.4
339.19 K, Crystal	348.2 ± 14
339.69 K, Crystal	348.7 ± 18
340.2 K, Crystal	350.4 ± 9.4
340.7 K, Crystal	352.5 ± 11
341.2 K, Crystal	350.7 ± 9.4
341.7 K, Crystal	350.7 ± 14
342.2 K, Crystal	351.4 ± 15
342.7 K, Crystal	351.7 ± 15
343.19 K, Crystal	353.4 ± 11
343.69 K, Crystal	353.1 ± 9.1
344.19 K, Crystal	353.4 ± 15
344.69 K, Crystal	356.8 ± 12
345.19 K, Crystal	357 ± 11
345.69 K, Crystal	355.2 ± 13
346.19 K, Crystal	357.3 ± 12
346.69 K, Crystal	357.3 ± 13
347.19 K, Crystal	358.3 ± 11
347.69 K, Crystal	359.2 ± 12
348.19 K, Crystal	360.3 ± 12
348.69 K, Crystal	361.6 ± 16
349.19 K, Crystal	362.4 ± 16
349.69 K, Crystal	360.9 ± 14
350.19 K, Crystal	361.8 ± 17
350.69 K, Crystal	363.3 ± 14
351.19 K, Crystal	364.3 ± 13
351.69 K, Crystal	363.9 ± 12
352.19 K, Crystal	363.4 ± 13
352.69 K, Crystal	366 ± 8.7
353.19 K, Crystal	365.4 ± 14
353.69 K, Crystal	368.2 ± 11
354.19 K, Crystal	369.3 ± 14
354.69 K, Crystal	370 ± 14
355.19 K, Crystal	372.4 ± 13
355.69 K, Crystal	375.2 ± 12
356.19 K, Crystal	373.6 ± 12
356.69 K, Crystal	374.5 ± 17
357.19 K, Crystal	374.8 ± 16
357.69 K, Crystal	380 ± 12
358.19 K, Crystal	380.1 ± 11
358.69 K, Crystal	381.4 ± 12
359.19 K, Crystal	382.3 ± 10
359.69 K, Crystal	387 ± 9.4
360.19 K, Crystal	391.3 ± 10
360.69 K, Crystal	393.9 ± 11
361.19 K, Crystal	397.9 ± 17
361.69 K, Crystal	403.5 ± 18
362.19 K, Crystal	413.1 ± 16
362.69 K, Crystal	424.4 ± 17
363.19 K, Crystal	446.7 ± 14
370.2 K, Liquid	458.6 ± 18
370.7 K, Liquid	460.1 ± 18
371.19 K, Liquid	461.4 ± 16
371.69 K, Liquid	461.5 ± 22
372.19 K, Liquid	463.4 ± 21
372.69 K, Liquid	462.1 ± 22
373.19 K, Liquid	464.1 ± 20
373.69 K, Liquid	465.7 ± 27
374.19 K, Liquid	465.5 ± 27
374.69 K, Liquid	467.4 ± 19
375.19 K, Liquid	464.3 ± 18
375.69 K, Liquid	466.6 ± 25
376.19 K, Liquid	466.5 ± 23
376.69 K, Liquid	466.6 ± 17
377.19 K, Liquid	467.5 ± 18
377.69 K, Liquid	468.1 ± 15
378.19 K, Liquid	470.5 ± 17
378.69 K, Liquid	469.8 ± 22
379.19 K, Liquid	468.2 ± 21
379.69 K, Liquid	471.2 ± 23
380.19 K, Liquid	470 ± 19
380.69 K, Liquid	474 ± 24
381.19 K, Liquid	473.3 ± 28
381.69 K, Liquid	474 ± 28
382.19 K, Liquid	470.5 ± 23
382.69 K, Liquid	473.3 ± 24
383.19 K, Liquid	472.6 ± 21
383.69 K, Liquid	473.7 ± 21
384.19 K, Liquid	474.9 ± 23
384.69 K, Liquid	477.4 ± 23
385.19 K, Liquid	480 ± 32
385.69 K, Liquid	481.1 ± 24
386.19 K, Liquid	482.1 ± 26
386.69 K, Liquid	479 ± 28
